Patent US20040076974A1, “Liver necrosis predictive genes” (priority 2002, published 2004)
Values joined by “and” are separate entries in the source; they are usually repeats but may differ in a detail not shown here. Equal values may be shown once. Read-outs that look alike come from different tables or passages of the source.

Tested on: toxicologically relevant rat genes (rat CT array)
[1] = 24 h, dose 20, ratio treatment/control, listed as PBARB
[2] = 24 h, dose 80, ratio treatment/control, listed as PBARB

CCC1(c2ccccc2)C(=O)NC(=O)NC1=O [phenobarbital]
3-hydroxyisobutyrate dehydrogenase [1]: 1.08 and 1.006 | 14-3-3 zeta [1]: 1.208 and 1.207 | 17-beta hydroxysteroid dehydrogenase, type 2 [1]: 1.581 and 1.324 | 60S ribosomal protein L6 [1]: 1.352 and 1.202 | ATPase inhibitor (rat mitochondrial IF1 protein) [1]: 0.6195 and 0.719 | Alpha 1 - inhibitor III [1]: 0.5583 and 0.815 | Alpha-2-macroglobulin [1]: 0.7668 and 0.9845 | Bax (alpha) [1]: 1.204 and 1.029 | Beta-actin [1]: 1.31 and 1.008 | Calpactin I heavy chain [1]: 1.101 and 1.191 | Carbamyl phosphate synthetase I [1]: 0.7852 and 0.892 | Carbonic anhydrase III [1]: 0.977 and 0.617 | Carbonyl reductase [1]: 0.9613 and 0.916 | Cathepsin L, sequence 2 [1]: 1.563 and 1.367 | Cofilin [1]: 0.9117 | Cyclin G [1]: 1 | DNA polymerase beta [1]: 1.056 | Dynamin-1 (D100) [1]: 0.8477 and 0.8322 | Endogenous retroviral sequence, 5′ and 3′ LTR [1]: 0.9945 and 0.7515 | Enolase alpha [1]: 1.238 and 0.9827 | Epidermal growth factor [1]: 0.8761 and 0.9811 | Equilbrative nitrobenzylthioinosine-sensitive nucleoside transporter [1]: 1.018 and 0.7905 | Extracellular-signal-regulated kinase 1 [1]: 1.131 and 0.7366 | Fas antigen [1]: 1.246 and 1.226 | Gadd45 [1]: 1.009 and 1.065 | Gadd153 [1]: 1.013 and 1.011 | Gamma-actin, cytoplasmic [1]: 1.054 and 0.8811 | Glucose-regulated protein 78 [1]: 1.261 and 1.059 | Heme oxygenase [1]: 0.9438 and 0.9315 | Hepatic lipase [1]: 0.6998 and 0.9047 | ID-1 [1]: 0.8693 and 1.008 | IgE binding protein [1]: 0.8925 and 0.9114 | IkB-a [1]: 1.305 and 0.9599 | Insulin-like growth factor I [1]: 0.7485 and 0.9327 | Insulin-like growth factor binding protein 1 [1]: 1.727 and 1.357 | Insulin-like growth factor binding protein 3 [1]: 0.8872 and 0.9985 | Integrin beta1 [1]: 1.272 and 1.092 | L-gulono-gamma-lactone oxidase [1]: 1.051 and 0.8183 | Liver fatty acid binding protein [1]: 1.109 and 1.478 | MAP kinase kinase [1]: 1.185 | Macrophage inflammatory protein-2 alpha [1]: 1.188 and 1.009 | Matrin F/G [1]: 1.181 and 1.074 | Matrix metalloproteinase-1 [1]: 1.164 | Melanoma-associated antigen ME491 [1]: 0.9925 and 1.119 | Monocyte chemotactic protein receptor (CCR2) [1]: 1.134 | Multidrug resistant protein-2 [1]: 1.635 and 1.128 | N-hydroxy-2-acetylaminofluorene sulfotransferase (ST1C1) [1]: 0.9899 and 0.8091 | Organic anion transporter 3 [1]: 1.248 and 1.132 | Organic cation transporter 3 [1]: 1.276 and 1.184 | Ornithine decarboxylase [1]: 1.253 and 1.099 | PAR interacting protein [1]: 1.254 and 1.247 | Phase-1 RCT 252 [1]: 0.9399 | Phase-1 RCT-15 [1]: 1.589 | Phase-1 RCT-33 [1]: 1.471 | Phase-1 RCT-36 [1]: 1.441 | Phase-1 RCT-39 [1]: 1.098 and 0.9997 | Phase-1 RCT-48 [1]: 0.8561 | Phase-1 RCT-49 [1]: 0.9102 | Phase-1 RCT-50 [1]: 1.003 and 0.9822 | Phase-1 RCT-83 [1]: 0.8335 | Phase-1 RCT-88 [1]: 0.963 | Phase-1 RCT-102 [1]: 0.6239 | Phase-1 RCT-117 [1]: 0.7039 | Phase-1 RCT-123 [1]: 0.9541 | Phase-1 RCT-127 [1]: 0.7569 | Phase-1 RCT-128 [1]: 0.7394 and 0.7417 | Phase-1 RCT-137 [1]: 0.7926 | Phase-1 RCT-179 [1]: 0.8634 and 0.9704 | Phase-1 RCT-181 [1]: 0.9556 | Phase-1 RCT-182 [1]: 0.8988 | Phase-1 RCT-189 [1]: 0.9743 | Phase-1 RCT-191 [1]: 1.518 and 1.291 | Phase-1 RCT-213 [1]: 1.105 | Phase-1 RCT-239 [1]: 0.8651 | Phase-1 RCT-242 [1]: 0.9504 | Phase-1 RCT-256 [1]: 0.9833 | Phase-1 RCT-258 [1]: 1.096 | Phase-1 RCT-264 [1]: 0.5841 | Phase-1 RCT-288 [1]: 0.674 | Proliferating cell nuclear antigen gene [1]: 1.31 and 0.9115 | Ribosomal protein L13A [1]: 1.101 and 1.176 | Ribosomal protein S8 [1]: 1.41 and 1.396 | Senescence marker protein-30 [1]: 0.7967 and 0.7544 | Sodium/bile acid cotransporter [1]: 1.606 and 1.619 | Superoxide dismutase Mn [1]: 1.251 and 1.032 | Thymosin beta-10 [1]: 1.095 | Transthyretin [1]: 0.579 and 0.7326 | Ubiquitin conjugating enzyme (RAD 6 homologue) [1]: 1.219 and 1.207 | Uncoupling protein 2 [1]: 1.028 and 0.9917 | Zinc finger protein [1]: 1.033 and 1.014 | c-jun [1]: 0.8724 and 0.8417 | c-myc [1]: 1.263 and 0.7701 | p53 [1]: 1.141 and 1.123 | {Ribosomal protein L6} [1]: 1.13 and 0.9995 | 3-hydroxyisobutyrate dehydrogenase [2]: 0.9364 and 1.012 and 0.9868 | 14-3-3 zeta [2]: 1.349 and 1.439 and 1.37 | 17-beta hydroxysteroid dehydrogenase, type 2 [2]: 0.7562 and 0.7908 and 0.9571 | 60S ribosomal protein L6 [2]: 1.307 and 1.425 | ATPase inhibitor (rat mitochondrial IF1 protein) [2]: 0.6848 and 0.7077 and 0.6801 | Aldehyde dehydrogenase, microsomal [2]: 1.087 and 1.048 | Alpha 1 - inhibitor III [2]: 0.5856 and 0.4905 and 0.5622 | Alpha-2-macroglobulin [2]: 0.9113 and 0.8593 and 0.9766 | Bax (alpha) [2]: 1.058 and 1.091 and 1.122 | Beta-actin [2]: 1.224 and 1.246 and 1.145 | Calpactin I heavy chain [2]: 1.134 and 1.063 | Carbamyl phosphate synthetase I [2]: 0.8575 and 0.7797 and 0.7692 | Carbonyl reductase [2]: 1.059 and 1.125 and 0.962 | Cathepsin L, sequence 2 [2]: 1.574 and 1.633 | Cofilin [2]: 0.9114 and 0.8537 and 0.8627 | Cyclin G [2]: 1.002 and 1.066 and 1.079 | DNA polymerase beta [2]: 1.046 and 1.107 | Dynamin-1 (D100) [2]: 0.9128 and 0.9717 and 0.9326 | Endogenous retroviral sequence, 5′ and 3′ LTR [2]: 1.21 and 0.7011 and 0.7797 | Enolase alpha [2]: 1.121 and 1.118 and 1.149 | Epidermal growth factor [2]: 1.003 and 1.092 and 1.144 | Equilbrative nitrobenzylthioinosine-sensitive nucleoside transporter [2]: 0.9518 and 0.8269 and 0.9012 | Extracellular-signal-regulated kinase 1 [2]: 1.5 and 1.071 and 0.8668 | Fas antigen [2]: 1.331 and 1.404 and 1.329 | Gadd45 [2]: 1.044 and 0.9552 and 1.022 | Gadd153 [2]: 1.008 and 0.989 and 0.9738 | Gamma-actin, cytoplasmic [2]: 1.252 and 1.167 and 1.207 | Glucose-regulated protein 78 [2]: 1.679 and 1.668 and 1.487 | Heme oxygenase [2]: 0.7677 and 0.7554 and 0.8649 | Hepatic lipase [2]: 0.7302 and 1.208 and 0.6736 | ID-1 [2]: 1.015 (2×) and 0.9098 | IgE binding protein [2]: 0.9374 and 0.898 | IkB-a [2]: 1.024 and 1.103 and 1.096 | Insulin-like growth factor I [2]: 0.6186 and 0.52 and 0.7677 | Insulin-like growth factor binding protein 1 [2]: 1.514 and 1.628 | Insulin-like growth factor binding protein 3 [2]: 0.6158 and 0.8747 | Integrin beta1 [2]: 1.29 and 1.37 and 1.335 | L-gulono-gamma-lactone oxidase [2]: 0.6365 and 0.6402 and 0.7055 | Liver fatty acid binding protein [2]: 0.8038 and 0.7393 and 0.8984 | MAP kinase kinase [2]: 1.002 and 1.108 | Macrophage inflammatory protein-2 alpha [2]: 1.093 and 1.12 and 1.177 | Matrin F/G [2]: 0.9519 and 0.9552 and 1.004 | Matrix metalloproteinase-1 [2]: 1.245 and 1.194 and 1.355 | Melanoma-associated antigen ME491 [2]: 1.089 and 0.9854 and 1.045 | Monocyte chemotactic protein receptor (CCR2) [2]: 1.034 and 1.086 and 1.071 | Multidrug resistant protein-2 [2]: 1.301 and 1.556 and 1.405 | N-hydroxy-2-acetylaminofluorene sulfotransferase (ST1C1) [2]: 0.7492 and 0.7954 and 0.8182 | Nucleoside diphosphate kinase beta isoform [2]: 1.36 and 1.288 and 1.362 | Organic anion transporter 3 [2]: 1.251 and 1.195 and 1.053 | Organic cation transporter 3 [2]: 1.211 and 1.277 and 1.36 | Ornithine decarboxylase [2]: 1.262 and 1.294 and 1.161 | PAR interacting protein [2]: 1.196 and 1.432 and 1.205 | Phase-1 RCT 252 [2]: 0.772 and 0.7405 | Phase-1 RCT-15 [2]: 1 | Phase-1 RCT-33 [2]: 1.288 | Phase-1 RCT-37 [2]: 1.101 | Phase-1 RCT-39 [2]: 1.631 and 1.876 and 2.263 | Phase-1 RCT-40 [2]: 0.9657 and 1.099 | Phase-1 RCT-48 [2]: 0.6407 | Phase-1 RCT-72 [2]: 0.9031 and 0.8598 | Phase-1 RCT-83 [2]: 0.7773 | Phase-1 RCT-88 [2]: 0.8891 | Phase-1 RCT-89 [2]: 0.9166 | Phase-1 RCT-102 [2]: 0.7133 and 0.4783 and 0.5208 | Phase-1 RCT-123 [2]: 0.9384 and 1.104 | Phase-1 RCT-137 [2]: 0.8817 | Phase-1 RCT-154 [2]: 1.303 | Phase-1 RCT-180 [2]: 1.296 | Phase-1 RCT-181 [2]: 0.9889 | Phase-1 RCT-182 [2]: 0.9123 | Phase-1 RCT-189 [2]: 0.8764 and 0.754 and 0.6881 | Phase-1 RCT-191 [2]: 1.599 | Phase-1 RCT-214 [2]: 0.9342 and 1.408 | Phase-1 RCT-239 [2]: 0.5982 and 0.595 | Phase-1 RCT-241 [2]: 1.293 | Phase-1 RCT-242 [2]: 0.9855 and 0.8679 and 0.8934 | Phase-1 RCT-256 [2]: 0.8602 | Phase-1 RCT-264 [2]: 0.5789 and 0.5647 and 0.5936 | Phase-1 RCT-270 [2]: 0.9344 and 0.9311 | Phase-1 RCT-271 [2]: 1.204 and 1.753 | Phase-1 RCT-291 [2]: 1.285 | Phase-1 RCT-296 [2]: 0.8165 | Proliferating cell nuclear antigen gene [2]: 1.007 and 0.9415 and 1.108 | Ribosomal protein L13A [2]: 1.209 and 1.299 | Ribosomal protein S8 [2]: 1.309 and 1.3 and 1.45 | Ribosomal protein S17 [2]: 1.52 | Senescence marker protein-30 [2]: 0.4601 and 0.4705 and 0.6829 | Sodium/bile acid cotransporter [2]: 2.871 and 2.806 and 2.757 | Superoxide dismutase Mn [2]: 1.266 and 1.52 and 1.416 | Thymosin beta-10 [2]: 0.9766 and 1.212 | Transthyretin [2]: 0.5528 and 0.5255 and 0.5896 | Ubiquitin conjugating enzyme (RAD 6 homologue) [2]: 1.202 and 1.253 and 1.239 | Uncoupling protein 2 [2]: 1.015 and 0.8977 and 1.15 | Zinc finger protein [2]: 0.9857 and 1.001 and 0.984 | c-jun [2]: 0.6641 and 0.6214 and 0.6871 | c-myc [2]: 1.056 and 0.76 and 0.7591 | p53 [2]: 1.049 and 1.111 and 0.9729 | {Ribosomal protein L6} [2]: 1.301 | Paraoxonase 1 (rat, in vivo): 0.7914 and 0.865 and 0.7219 and 0.8315 and 0.967
